Patent publication US20030040507A1, “Pharmaceutical composition comprising ifosfamide and carnitine” (priority 1997, published 2003)

Key:
[1] = tested on: proximal tubule of the kidneys; assay: comparative investigation of nephrotoxicity in healthy and tumour-bearing rats; type: in vivo
Source text: In accordance with the set object, comparative investigations were investigated [sic] out with respect to effect on the nephrotoxicity in healthy and tumour-bearing rats after administration of ifosfamide on its own and in combination with L-carnitine. The doses for L-carnitine were selected such that the compound itself causes no side effects at all in the animals.

rats = conditions: L-carnitine together with ifosfamide; cited from earlier work
tumour-bearing rats = assay: antitumour action of ifosfamide in combination with L-carnitine; type: in vivo; conditions: FIGS. 1 and 2

C[N+](C)(C)C[C@H](O)CC(=O)[O-] [L-carnitine]
effect on ifosfamide-induced damage to the proximal tubule of the kidney ([1]; simultaneous administration of L-carnitine 2×100 mg/kg i.v. with ifosfamide, rats): antagonized significantly | clinical result (rats): decreased lethargy

O=P1(NCCCl)OCCCN1CCCl (stereo not shown) [ifosfamide]
damage to the proximal tubule of the kidneys ([1]; ifosfamide on its own, healthy and tumour-bearing rats (both animal groups)): clear dose-dependent damage | antitumour action of ifosfamide (tumour-bearing rats): not affected
